Experimental data as given in PubChem BioAssay (NCI).
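Following 48 hours of exposure in 96-well plates, responses at five concentrations were used to interpolate endpoints linearly. The concentration for 50% growth inhibition is given as GI50. TGI marks complete inhibition of growth.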

What was measured:
Assay in all cases: NCI-60 cell line screen, 48 h
HCT-15 colon = system: HCT-15 colon
NCI-H226 lung = system: NCI-H226 lung
MCF7 breast = system: MCF7 breast
IGROV1 ovarian = system: IGROV1 ovarian
BT-549 breast = system: BT-549 breast
RXF 393 renal = system: RXF 393 renal
OVCAR-3 ovarian = system: OVCAR-3 ovarian
HL-60(TB) leukemia = system: HL-60(TB) leukemia
NCI-H460 lung = system: NCI-H460 lung
K-562 leukemia = system: K-562 leukemia
PC-3 prostate = system: PC-3 prostate
TK-10 renal = system: TK-10 renal
SNB-19 CNS = system: SNB-19 CNS
EKVX NSCLC = system: EKVX NSCLC
SK-MEL-2 melanoma = system: SK-MEL-2 melanoma
SF-295 CNS = system: SF-295 CNS
SN12C renal = system: SN12C renal
SK-MEL-5 melanoma = system: SK-MEL-5 melanoma
UO-31 renal = system: UO-31 renal
HS 578T breast = system: HS 578T breast
KM12 colon = system: KM12 colon
RPMI-8226 leukemia = system: RPMI-8226 leukemia
SF-268 CNS = system: SF-268 CNS
ACHN renal = system: ACHN renal
SW-620 colon = system: SW-620 colon
OVCAR-8 ovarian = system: OVCAR-8 ovarian
HCT-116 colon = system: HCT-116 colon
SR leukemia = system: SR leukemia
CAKI-1 renal = system: CAKI-1 renal
786-0 renal = system: 786-0 renal
SF-539 CNS = system: SF-539 CNS
MDA-MB-435 = system: MDA-MB-435
OVCAR-5 ovarian = system: OVCAR-5 ovarian
LOX IMVI melanoma = system: LOX IMVI melanoma
MOLT-4 leukemia = system: MOLT-4 leukemia
SK-MEL-28 melanoma = system: SK-MEL-28 melanoma
HT29 colon = system: HT29 colon
HOP-62 NSCLC = system: HOP-62 NSCLC
UACC-62 melanoma = system: UACC-62 melanoma
COLO 205 colon = system: COLO 205 colon
NCI-H23 lung = system: NCI-H23 lung
A498 renal = system: A498 renal
MDA-MB-231 breast = system: MDA-MB-231 breast
U251 CNS = system: U251 CNS
NCI/ADR-RES ovarian = system: NCI/ADR-RES ovarian
NCI-H522 lung = system: NCI-H522 lung
A549 NSCLC = system: A549 NSCLC
DU-145 prostate = system: DU-145 prostate
SNB-75 CNS = system: SNB-75 CNS

With `COc1ccc(/C=C/C(=O)c2ccc(Cl)cc2Cl)cc1` the GI50 (HCT-15 colon) was 12.2 µM, the TGI (HCT-15 colon) was 37 µM and the GI50 (NCI-H226 lung) was 20.4 µM. For the same compound, the TGI (NCI-H226 lung) was 46.6 µM, the GI50 (MCF7 breast) was 9.75 µM and the TGI (MCF7 breast) was 27.5 µM. The GI50 (IGROV1 ovarian) was 20.5 µM, the TGI (IGROV1 ovarian) was 59 µM and the GI50 (BT-549 breast) was 16.7 µM. The TGI (BT-549 breast) was 36.8 µM, the GI50 (RXF 393 renal) was 12.7 µM and the TGI (RXF 393 renal) was 29.9 µM. The GI50 (OVCAR-3 ovarian) was 18.9 µM, the TGI (OVCAR-3 ovarian) was 39 µM and the GI50 (HL-60(TB) leukemia) was 9.98 µM. For the same compound, the TGI (HL-60(TB) leukemia) was 38.1 µM, the GI50 (NCI-H460 lung) was 19.2 µM and the TGI (NCI-H460 lung) was 41.3 µM. The GI50 (K-562 leukemia) was 3.37 µM, the TGI (K-562 leukemia) was > 100 µM and the GI50 (PC-3 prostate) was 6.1 µM. The TGI (PC-3 prostate) was 21.9 µM, the GI50 (TK-10 renal) was 18.9 µM and the TGI (TK-10 renal) was 37.4 µM. It also gave a GI50 (SNB-19 CNS) of 21.5 µM, a TGI (SNB-19 CNS) of 75.3 µM and a GI50 (EKVX NSCLC) of 20.1 µM. The TGI (EKVX NSCLC) was 47.3 µM, the GI50 (SK-MEL-2 melanoma) was 24.4 µM and the TGI (SK-MEL-2 melanoma) was 70.9 µM. It also gave a GI50 (SF-295 CNS) of 20.4 µM, a TGI (SF-295 CNS) of 53.4 µM and a GI50 (SN12C renal) of 20.4 µM. It also gave a TGI (SN12C renal) of 43.2 µM, a GI50 (SK-MEL-5 melanoma) of 17.9 µM and a TGI (SK-MEL-5 melanoma) of 39 µM. The GI50 (UO-31 renal) was 29.1 µM, the TGI (UO-31 renal) was 94.5 µM and the GI50 (HS 578T breast) was 26.2 µM. For the same compound, the TGI (HS 578T breast) was 65.4 µM, the GI50 (KM12 colon) was 13.8 µM and the TGI (KM12 colon) was 40.5 µM. For the same compound, the GI50 (RPMI-8226 leukemia) was 3.03 µM, the TGI (RPMI-8226 leukemia) was 6.31 µM and the GI50 (SF-268 CNS) was 19 µM. It also gave a TGI (SF-268 CNS) of 41.1 µM, a GI50 (ACHN renal) of 17.3 µM and a TGI (ACHN renal) of 33.8 µM. The GI50 (SW-620 colon) was 9.36 µM, the TGI (SW-620 colon) was > 100 µM and the GI50 (OVCAR-8 ovarian) was 21.3 µM. The TGI (OVCAR-8 ovarian) was 55.9 µM, the GI50 (HCT-116 colon) was 9.05 µM and the TGI (HCT-116 colon) was 24.5 µM. For the same compound, the GI50 (SR leukemia) was 1.88 µM, the TGI (SR leukemia) was > 100 µM and the GI50 (CAKI-1 renal) was 23.7 µM. For the same compound, the TGI (CAKI-1 renal) was 50.1 µM, the GI50 (786-0 renal) was 13.9 µM and the TGI (786-0 renal) was 30.7 µM. The GI50 (SF-539 CNS) was 18.9 µM, the TGI (SF-539 CNS) was 37.8 µM and the GI50 (MDA-MB-435) was 11.9 µM. It also gave a TGI (MDA-MB-435) of 44.5 µM, a GI50 (OVCAR-5 ovarian) of 25.5 µM and a TGI (OVCAR-5 ovarian) of 78.5 µM. For the same compound, the GI50 (LOX IMVI melanoma) was 15.9 µM, the TGI (LOX IMVI melanoma) was 32.1 µM and the GI50 (MOLT-4 leukemia) was 3.53 µM. For the same compound, the TGI (MOLT-4 leukemia) was > 100 µM, the GI50 (SK-MEL-28 melanoma) was 34 µM and the TGI (SK-MEL-28 melanoma) was 73.1 µM. The GI50 (HT29 colon) was 33.8 µM, the TGI (HT29 colon) was > 100 µM and the GI50 (HOP-62 NSCLC) was 20.3 µM. For the same compound, the TGI (HOP-62 NSCLC) was 48.8 µM, the GI50 (UACC-62 melanoma) was 15 µM and the TGI (UACC-62 melanoma) was 30.3 µM. For the same compound, the GI50 (COLO 205 colon) was 32 µM, the TGI (COLO 205 colon) was > 100 µM and the GI50 (NCI-H23 lung) was 18.8 µM. It also gave a TGI (NCI-H23 lung) of 42.8 µM, a GI50 (A498 renal) of 10.7 µM and a TGI (A498 renal) of 24.2 µM. It also gave a GI50 (MDA-MB-231 breast) of 20.5 µM, a TGI (MDA-MB-231 breast) of 46.7 µM and a GI50 (U251 CNS) of 13.2 µM. The TGI (U251 CNS) was 31.3 µM, the GI50 (NCI/ADR-RES ovarian) was 15.9 µM and the TGI (NCI/ADR-RES ovarian) was 41.5 µM. For the same compound, the GI50 (NCI-H522 lung) was 30.1 µM, the TGI (NCI-H522 lung) was > 100 µM and the GI50 (A549 NSCLC) was 21.4 µM. For the same compound, the TGI (A549 NSCLC) was 53.6 µM, the GI50 (DU-145 prostate) was 16 µM and the TGI (DU-145 prostate) was 33.1 µM. It also gave a GI50 (SNB-75 CNS) of 22.2 µM and a TGI (SNB-75 CNS) of 44.1 µM.
